Here are results for 1 compound from US20150141383A1, “Darunavir Polymorph and Process for Preparation Thereof” (Cipla Limited, priority 2010, published 2015).

This data set can be described thus: Hygroscopicity study as per British Pharmacopoeia method. It counts as physicochemical. How it is done: Darunavir Hydrate From C was subjected to hygroscopicity study and the test was performed as per the method given in British Pharmacopoeia.
A weight change of 0.0003 g was observed which correspond to 0.06% weight change. As per the test a sample is of non-hygroscopic nature if the weight change observed is less than 0.2%.

SMILES strings stand for the structures.

For `CC(C)CN(C[C@@H](O)[C@H](Cc1ccccc1)NC(=O)O[C@H]1CO[C@H]2OCC[C@H]21)S(=O)(=O)c1ccc(N)cc1` [darunavir hydrate Form C, (3R,3aS,6aR)-hexahydrofuro[2,3-b]furan-3-yl(1S,2R)-3-[[(4-aminophenyl)sulfonyl](isobutyl)amino]-1-benzyl-2-hydroxypropylcarbamate], for the setting “25° C. and 85% RH, 24 hours”, the “hygroscopic nature (non-hygroscopic if weight change less than 0.2%)” value is recorded as “non-hygroscopic”. For the same compound, the weight change by setting is: (57.6456 g exposed at 25° C. and 85% RH for 24 hours) 0.0003 g; (exposed at 25° C. and 85% RH for 24 hours) 0.06%.
